In data set [1] the target is T1, KAT2A (GCN5L2) (h) bromodomain (Homo sapiens, UniProt Q92830).
T1 construct: Bromodomain
T1 sequence (Q92830 728-832 limits assumed): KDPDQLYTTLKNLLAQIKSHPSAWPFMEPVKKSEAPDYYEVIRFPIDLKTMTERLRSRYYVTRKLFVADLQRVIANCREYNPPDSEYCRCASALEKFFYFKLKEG
Briefly: Epigenetic binding assay, Bromodomain. The following applies: for inhibition at 10 µM: read-out: % Inhibition of Control Specific Binding.

A further data set deals with MYST4(h) (Homo sapiens, UniProt Q8WYB5). Put plainly: Epigenetic enzyme assay, Histone acetyltransferases (HATs). The data set is classed as biochemical. Conditions: for inhibition at 10 µM: read-out: % Inhibition of Control Values.
For another data set, the target named is HDAC2 (h) (Homo sapiens, UniProt Q92769). Put plainly: Epigenetic enzyme assay, Histone deacetylase (HDACs). The data set is classed as biochemical. Conditions: read-out: % Inhibition of Control Values.
The target of another data set is T2, HDAC8 (h) (Homo sapiens, UniProt Q9BY41).
T2 sequence (Q9BY41 1-377): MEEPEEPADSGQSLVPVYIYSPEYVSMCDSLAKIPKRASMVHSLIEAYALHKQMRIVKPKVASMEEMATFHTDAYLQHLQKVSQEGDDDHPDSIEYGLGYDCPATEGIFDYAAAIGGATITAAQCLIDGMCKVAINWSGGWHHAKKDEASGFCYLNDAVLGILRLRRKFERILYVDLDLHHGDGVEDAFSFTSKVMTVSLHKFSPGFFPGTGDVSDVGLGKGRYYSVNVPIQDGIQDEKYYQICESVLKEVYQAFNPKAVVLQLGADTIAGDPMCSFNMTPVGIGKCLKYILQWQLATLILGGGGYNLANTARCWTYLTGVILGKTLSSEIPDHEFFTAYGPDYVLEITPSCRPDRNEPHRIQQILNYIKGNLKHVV
The description is as above. Conditions: read-out: % Inhibition of Control Values. The data set is classed as biochemical.

In another data set the test system is MLL4(h) complex. Briefly: Epigenetic enzyme assay, Methyltransferases (MTs). The data set is classed as biochemical, human. Conditions: for % Inhibition of Control Values: 10 μM.
The next data set deals with PRDM9 (h) (Homo sapiens, UniProt Q9NQV7). Briefly: Epigenetic enzyme assay, Methyltransferases (MTs). The data set is classed as biochemical. The following applies: for inhibition at 10 µM: read-out: % Inhibition of Control Values.
The target in data set [2] is MSK2(h) (substrate histone H3 full length) (Homo sapiens, UniProt O75676). Briefly: Epigenetic enzyme assay, Kinases. The data set is classed as biochemical. Conditions: read-out: % Inhibition of Control Values.
Data set [3] deals with Guanidinoacetate N-methyltransferase (h) (Homo sapiens, UniProt Q14353). Briefly: Epigenetic enzyme assay, Small molecule methyltransferases. The data set is classed as biochemical. The following applies: read-out: % Inhibition of Control Values.
The next data set deals with T3, USP 21 (h) (Homo sapiens, UniProt Q9UK80).
T3 sequence (Q9UK80 1-565): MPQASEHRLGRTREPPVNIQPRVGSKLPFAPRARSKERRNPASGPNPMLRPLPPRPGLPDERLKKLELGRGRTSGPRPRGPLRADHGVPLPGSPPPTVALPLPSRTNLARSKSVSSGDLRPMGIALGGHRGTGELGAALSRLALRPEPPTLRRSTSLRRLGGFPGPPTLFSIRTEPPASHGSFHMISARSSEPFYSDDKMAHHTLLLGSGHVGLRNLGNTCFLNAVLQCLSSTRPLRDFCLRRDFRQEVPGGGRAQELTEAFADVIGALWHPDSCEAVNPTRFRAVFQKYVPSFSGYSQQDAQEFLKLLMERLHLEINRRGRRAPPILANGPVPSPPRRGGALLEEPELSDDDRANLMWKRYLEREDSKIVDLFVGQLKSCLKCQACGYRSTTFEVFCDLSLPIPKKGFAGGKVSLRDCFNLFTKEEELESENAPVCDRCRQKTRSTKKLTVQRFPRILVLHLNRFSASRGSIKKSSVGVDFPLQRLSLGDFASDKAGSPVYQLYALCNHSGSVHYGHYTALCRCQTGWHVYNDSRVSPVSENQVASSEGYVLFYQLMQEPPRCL
Put plainly: Epigenetic enzyme assay, Ubiquitin modifying enzymes. The following applies: 10 μM; read-out: % Inhibition of Control Values. The data set is classed as biochemical.

In the next data set the target is T4, Chemokine CXCR2 (IL-8RB) (Homo sapiens, UniProt P25025).
T4 construct: expressed in transfected cells; host or cells: CHO-K1 cells
T4 sequence (P25025 1-360): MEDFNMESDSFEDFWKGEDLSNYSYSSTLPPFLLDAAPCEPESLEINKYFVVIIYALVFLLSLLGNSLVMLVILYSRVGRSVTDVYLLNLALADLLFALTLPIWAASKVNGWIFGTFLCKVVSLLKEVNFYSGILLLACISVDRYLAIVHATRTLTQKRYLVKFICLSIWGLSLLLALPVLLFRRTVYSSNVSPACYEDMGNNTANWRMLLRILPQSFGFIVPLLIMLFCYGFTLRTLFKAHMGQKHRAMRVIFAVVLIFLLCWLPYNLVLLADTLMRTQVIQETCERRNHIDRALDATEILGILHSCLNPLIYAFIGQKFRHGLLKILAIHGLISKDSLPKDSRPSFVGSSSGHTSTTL
Briefly: Chemokine CXCR2 (IL-8RB) radio ligand binding. The following applies: assay year 2015. The method, then:
The in vitro pharmacological studies were conducted by Eurofins PanLab (Taiwan) using the parameters shown in Table 13 with respect to appropriate literature references.

The next data set relates to MDA-MB-415. Put plainly: OncoPanel cell proliferation assay (10-day). The data set is classed as cell-based, human. Conditions: for EC50 / GI50 / IC50: Homo sapiens, MDA-MB-415, Breast; for EC50: read-out: Cell Count EC50; for GI50: read-out: Cell Count GI50; for IC50: read-out: Cell Count IC50.
A further data set deals with T5, CYP1A (Homo sapiens, UniProt P05177).
T5 sequence (P05177 1-516): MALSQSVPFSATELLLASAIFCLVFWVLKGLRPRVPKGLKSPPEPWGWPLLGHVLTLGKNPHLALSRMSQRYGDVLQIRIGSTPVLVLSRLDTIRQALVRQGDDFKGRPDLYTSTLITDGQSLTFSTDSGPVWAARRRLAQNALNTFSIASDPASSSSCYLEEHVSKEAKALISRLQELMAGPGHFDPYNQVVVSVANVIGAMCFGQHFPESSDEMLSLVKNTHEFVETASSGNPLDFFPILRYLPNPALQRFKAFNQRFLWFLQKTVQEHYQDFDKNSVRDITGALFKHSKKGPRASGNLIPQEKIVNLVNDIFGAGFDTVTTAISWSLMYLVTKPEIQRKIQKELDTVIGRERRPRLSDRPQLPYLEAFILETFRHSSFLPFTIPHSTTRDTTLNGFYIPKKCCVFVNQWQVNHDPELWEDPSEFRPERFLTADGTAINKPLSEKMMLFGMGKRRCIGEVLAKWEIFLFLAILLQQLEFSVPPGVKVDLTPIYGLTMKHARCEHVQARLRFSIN
Briefly: Cytochrome P450 Inhibition (CYP panel). The data set is classed as in vitro ADME. Conditions: probe phenacetin.

The target of data set [4] is T6, CYP1A (Phenacetin Substrate) (Homo sapiens, UniProt P05177).
T6 sequence (P05177 1-516): T5 sequence (P05177 1-516)
Put plainly: Cytochrome P450 Inhibition (CYP panel). The data set is classed as in vitro ADME. Conditions: read-out: IC50 (estimated).

[5] abbreviates: human, human liver microsomes, read-out: % inhibition.
[6] abbreviates: CYP1A (phenacetin sub.), Human liver microsomes, read-out: % Inhibition of Control Values.

Data on five compounds can be found in patent publication US11331299B2, “Medicinal use of serrulatane diterpenes” (The University of Sydney, priority 2016, dated 2022).

The term inhibition denotes the relative decrease from the control value, in per cent. As a reminder, the EC50 is the concentration that produces a half-maximal response. A word on the GI50: it is the concentration at which growth is held to half of that of the control. As a reminder, the IC50 is the concentration needed to halve the response being measured.

Molecules are shown by their SMILES. Read-outs that look alike come from different tables or passages of the source.

Sequence of PRDM9 (h) (Q9NQV7 whole entry): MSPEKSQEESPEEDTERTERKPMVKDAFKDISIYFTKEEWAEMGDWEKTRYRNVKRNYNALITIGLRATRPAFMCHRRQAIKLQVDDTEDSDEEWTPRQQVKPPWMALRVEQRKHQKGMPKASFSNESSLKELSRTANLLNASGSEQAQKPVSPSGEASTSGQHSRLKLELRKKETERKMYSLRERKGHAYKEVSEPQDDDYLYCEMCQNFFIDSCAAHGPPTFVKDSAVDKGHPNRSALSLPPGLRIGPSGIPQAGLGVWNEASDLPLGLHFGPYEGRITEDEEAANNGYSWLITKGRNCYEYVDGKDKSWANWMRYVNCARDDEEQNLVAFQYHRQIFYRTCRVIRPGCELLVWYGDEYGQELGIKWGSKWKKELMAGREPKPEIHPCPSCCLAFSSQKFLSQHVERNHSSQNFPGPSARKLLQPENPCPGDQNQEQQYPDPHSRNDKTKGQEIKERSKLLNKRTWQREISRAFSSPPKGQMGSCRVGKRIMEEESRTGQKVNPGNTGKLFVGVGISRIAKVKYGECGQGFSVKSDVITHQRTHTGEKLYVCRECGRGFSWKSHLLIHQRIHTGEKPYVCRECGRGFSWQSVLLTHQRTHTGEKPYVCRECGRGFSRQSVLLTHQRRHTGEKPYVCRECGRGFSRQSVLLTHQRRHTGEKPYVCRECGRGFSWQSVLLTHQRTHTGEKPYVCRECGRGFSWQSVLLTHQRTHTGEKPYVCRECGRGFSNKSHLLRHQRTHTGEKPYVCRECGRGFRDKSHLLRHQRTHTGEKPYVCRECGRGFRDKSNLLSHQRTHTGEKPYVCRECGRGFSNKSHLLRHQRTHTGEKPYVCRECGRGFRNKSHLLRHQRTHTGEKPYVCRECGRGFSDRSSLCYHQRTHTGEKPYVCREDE
Sequence of MYST4(h) (Q8WYB5 whole entry): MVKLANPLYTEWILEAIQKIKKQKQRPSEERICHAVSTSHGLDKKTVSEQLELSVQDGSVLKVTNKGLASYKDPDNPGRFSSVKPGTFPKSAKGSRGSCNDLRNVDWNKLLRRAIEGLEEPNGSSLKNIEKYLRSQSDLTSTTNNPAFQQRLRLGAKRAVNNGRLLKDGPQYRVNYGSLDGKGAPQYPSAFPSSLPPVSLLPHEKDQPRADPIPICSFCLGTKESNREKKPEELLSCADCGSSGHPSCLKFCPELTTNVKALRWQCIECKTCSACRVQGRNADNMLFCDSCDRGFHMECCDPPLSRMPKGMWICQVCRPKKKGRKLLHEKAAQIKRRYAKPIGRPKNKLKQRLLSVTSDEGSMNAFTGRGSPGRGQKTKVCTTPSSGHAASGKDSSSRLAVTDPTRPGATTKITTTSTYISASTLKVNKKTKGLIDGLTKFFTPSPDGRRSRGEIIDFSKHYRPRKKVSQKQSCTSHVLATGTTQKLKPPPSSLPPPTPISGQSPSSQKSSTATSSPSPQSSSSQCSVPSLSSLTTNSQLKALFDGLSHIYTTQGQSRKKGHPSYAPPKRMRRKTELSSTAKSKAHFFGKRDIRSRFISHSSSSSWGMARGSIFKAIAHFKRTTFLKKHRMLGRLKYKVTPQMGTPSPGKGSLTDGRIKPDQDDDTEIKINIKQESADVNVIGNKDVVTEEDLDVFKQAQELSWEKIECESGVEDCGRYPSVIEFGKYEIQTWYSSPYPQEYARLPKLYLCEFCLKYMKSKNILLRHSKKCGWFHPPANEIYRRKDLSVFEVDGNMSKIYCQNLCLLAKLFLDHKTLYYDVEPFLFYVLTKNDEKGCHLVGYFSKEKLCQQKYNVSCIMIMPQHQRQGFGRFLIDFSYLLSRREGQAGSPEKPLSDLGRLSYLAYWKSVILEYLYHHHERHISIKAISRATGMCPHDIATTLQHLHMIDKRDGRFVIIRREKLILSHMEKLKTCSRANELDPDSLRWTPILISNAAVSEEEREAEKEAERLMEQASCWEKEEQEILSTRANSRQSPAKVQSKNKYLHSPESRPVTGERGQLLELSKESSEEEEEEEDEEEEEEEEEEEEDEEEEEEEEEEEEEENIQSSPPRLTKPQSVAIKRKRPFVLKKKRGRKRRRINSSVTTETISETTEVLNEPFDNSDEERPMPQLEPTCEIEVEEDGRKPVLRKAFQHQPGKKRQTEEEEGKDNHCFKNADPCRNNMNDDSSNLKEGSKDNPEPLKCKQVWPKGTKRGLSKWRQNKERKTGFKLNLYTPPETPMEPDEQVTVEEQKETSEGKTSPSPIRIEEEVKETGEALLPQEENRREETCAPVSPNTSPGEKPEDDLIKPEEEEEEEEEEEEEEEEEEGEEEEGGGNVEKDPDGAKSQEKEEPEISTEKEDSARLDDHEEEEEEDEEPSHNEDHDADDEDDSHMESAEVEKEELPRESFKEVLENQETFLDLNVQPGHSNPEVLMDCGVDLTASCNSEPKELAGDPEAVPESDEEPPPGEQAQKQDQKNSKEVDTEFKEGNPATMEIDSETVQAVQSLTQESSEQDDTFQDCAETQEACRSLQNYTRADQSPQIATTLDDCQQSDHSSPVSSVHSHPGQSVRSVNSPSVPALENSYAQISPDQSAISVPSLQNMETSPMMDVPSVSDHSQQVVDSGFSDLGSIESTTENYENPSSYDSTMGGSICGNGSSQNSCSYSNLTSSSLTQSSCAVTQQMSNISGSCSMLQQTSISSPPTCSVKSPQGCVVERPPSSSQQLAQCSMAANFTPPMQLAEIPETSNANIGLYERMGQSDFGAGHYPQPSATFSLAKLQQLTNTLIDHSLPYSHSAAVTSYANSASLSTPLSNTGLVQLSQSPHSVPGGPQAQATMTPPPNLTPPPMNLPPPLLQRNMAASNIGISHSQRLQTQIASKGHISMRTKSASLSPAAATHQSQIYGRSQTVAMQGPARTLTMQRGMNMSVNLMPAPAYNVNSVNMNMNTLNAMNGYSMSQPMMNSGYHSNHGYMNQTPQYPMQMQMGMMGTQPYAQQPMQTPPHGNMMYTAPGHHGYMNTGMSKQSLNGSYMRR
Sequence of MSK2(h) (substrate histone H3 full length) (O75676 whole entry): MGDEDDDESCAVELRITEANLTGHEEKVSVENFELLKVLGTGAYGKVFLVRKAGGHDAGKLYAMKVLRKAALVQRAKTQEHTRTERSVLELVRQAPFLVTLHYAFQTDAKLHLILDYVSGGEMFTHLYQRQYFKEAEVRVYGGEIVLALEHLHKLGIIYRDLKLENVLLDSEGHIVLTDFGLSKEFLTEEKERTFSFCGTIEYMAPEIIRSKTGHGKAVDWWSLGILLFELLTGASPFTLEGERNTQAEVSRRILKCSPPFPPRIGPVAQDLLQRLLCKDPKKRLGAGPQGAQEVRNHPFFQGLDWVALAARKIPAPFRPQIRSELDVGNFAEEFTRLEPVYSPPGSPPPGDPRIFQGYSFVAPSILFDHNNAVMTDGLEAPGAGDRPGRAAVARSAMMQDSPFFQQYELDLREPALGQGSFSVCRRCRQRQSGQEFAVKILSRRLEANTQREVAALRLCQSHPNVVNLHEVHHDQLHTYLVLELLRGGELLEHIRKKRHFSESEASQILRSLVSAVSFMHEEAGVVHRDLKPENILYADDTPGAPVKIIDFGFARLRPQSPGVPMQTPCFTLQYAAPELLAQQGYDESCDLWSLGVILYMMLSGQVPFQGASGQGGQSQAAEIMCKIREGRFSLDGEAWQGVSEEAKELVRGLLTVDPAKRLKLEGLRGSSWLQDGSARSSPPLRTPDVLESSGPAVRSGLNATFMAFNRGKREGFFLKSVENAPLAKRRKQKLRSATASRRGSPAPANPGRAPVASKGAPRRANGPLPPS
Sequence of HDAC2 (h) (Q92769 whole entry): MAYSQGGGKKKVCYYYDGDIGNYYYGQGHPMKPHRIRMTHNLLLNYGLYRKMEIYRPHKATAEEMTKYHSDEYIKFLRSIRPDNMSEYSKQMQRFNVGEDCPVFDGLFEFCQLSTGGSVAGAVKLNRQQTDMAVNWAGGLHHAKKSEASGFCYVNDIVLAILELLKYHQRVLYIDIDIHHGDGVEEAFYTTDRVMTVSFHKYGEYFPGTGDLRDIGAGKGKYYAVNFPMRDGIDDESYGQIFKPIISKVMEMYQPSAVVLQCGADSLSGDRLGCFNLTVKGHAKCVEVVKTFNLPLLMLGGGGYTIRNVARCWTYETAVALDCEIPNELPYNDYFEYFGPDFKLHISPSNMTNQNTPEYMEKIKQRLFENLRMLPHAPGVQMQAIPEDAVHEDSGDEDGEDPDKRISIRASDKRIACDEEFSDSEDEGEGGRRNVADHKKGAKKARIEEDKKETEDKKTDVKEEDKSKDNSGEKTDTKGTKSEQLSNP

For `CC(C)=CCC[C@@H]1C(O)Oc2c(C)cc(O)c3c2[C@H]1CC[C@H]3C` (some centres unmarked) [Compound 2, 5,18-epoxyserrulat-14-en-8,18-diol], the inhibition at 10 µM in data set [1] (10 μM) is 19%; at MYST4(h) it was 39%; on HDAC2 (h), 0%; on HDAC8 (h), -19%; at PRDM9 (h), 5%; in [2] it was 12%. Moreover, the inhibition at 10 µM in data set [3] was -1%; on USP 21 (h), 3%; at CYP1A (setting [5]) it was 63 to 92%; on CYP1A (setting [6]), 63%. In addition, in the data set with MLL4(h) complex, the “% Inhibition of Control Values” was −18%. The % control response at 10 µM at Chemokine CXCR2 (IL-8RB) was -7%. In addition, in the data set with MDA-MB-415, the EC50 is 11.5 µM. Besides, the GI50 in the data set on MDA-MB-415 was 10.8 µM. In addition, the IC50 in the data set on MDA-MB-415 was 11.5 µM; in data set [4], < 10 µM. Moreover, the inhibition at 1 µM on CYP1A (setting [5]) and on CYP1A (setting [6]) was 38% in each case.

On to `CC(C)=CCC[C@@H]1COc2c(C)cc(O)c3c2[C@H]1CC[C@H]3C` [Compound 3, 5,18-epoxy-8-hydroxyserrulat-14-ene], for which the inhibition at 10 µM in [1] (10 μM) is 18%; at MYST4(h), 71%; at HDAC2 (h), -2%; at HDAC8 (h), 0%; at PRDM9 (h), 4%; in data set [2] it was -1%. Further, the inhibition at 10 µM was -1% in data set [3] and 3% on USP 21 (h). Besides, the “% Inhibition of Control Values” with MLL4(h) complex is listed as −4%. Moreover, the % control response at 10 µM at Chemokine CXCR2 (IL-8RB) came out at 1%.

With `CC(C)=CCC[C@H](CO)[C@@H]1CC[C@@H](C)c2c1cc(C)c(O)c2O` [Compound 1, 7,8,18-trihydroxyserrulat-14-ene], the “% Inhibition of Control Specific Binding” value in [1] (10 μM) is “significant inhibitory activity”. Also, the inhibition at 10 µM in data set [1] (10 μM) is 76%; at MYST4(h), 25%; at HDAC2 (h) it was 1%; on HDAC8 (h), -8%; on PRDM9 (h), 9%; in data set [2] it was 9%. For the same compound, the inhibition at 10 µM in [3] was 8%; at USP 21 (h) it was -18%; at CYP1A (setting [5]) it was 63 to 92%; on CYP1A (setting [6]), 92%. Further, the IC50 was 3.9 µM in data set [1] (Table 9, inhibition/concentration-response curve, read-out: IC50); 1.02 µM with MDA-MB-415; < 10 µM in [4]. In addition, in the data set on MLL4(h) complex, the “% Inhibition of Control Values” was −16%. Further, the % control response at 10 µM at Chemokine CXCR2 (IL-8RB) was determined as 12%. Moreover, the “Relative cell count (%) Mean” value in the data set on MDA-MB-415 (3.00E+00 microM) worked out at 1.3%; with MDA-MB-415 (3.00E+01 microM) it was 0.2%; with MDA-MB-415 (3.01E−01 microM), 100.2%; with MDA-MB-415 (3.01E−02 microM), 93.4%; with MDA-MB-415 (3.02E−03 microM), 100.0%; in the data set on MDA-MB-415 (9.49E+00 microM) it was 0.3%. Moreover, the “Relative cell count (%) Mean” value worked out at 62.3% with MDA-MB-415 (9.51E−01 microM), 98.1% with MDA-MB-415 (9.52E−02 microM), 98.0% with MDA-MB-415 (9.53E−03 microM) and 90.2% in the data set with MDA-MB-415 (9.55E−04 microM). Further, the EC50 in the data set on MDA-MB-415 was 1.02 µM. In addition, the GI50 in the data set with MDA-MB-415 came out at 1 µM. Besides, the inhibition at 1 µM on CYP1A (setting [5]) and on CYP1A (setting [6]) was 28% each time.

With `CC(C)=CCC[C@H](C)[C@@H]1CC[C@@H](C)c2c1cc(C)c(O)c2O` [Compound 4, 7,8-dihydroxyserrulat-14-ene], the IC50 at MYST4(h) (Table 11, inhibition/concentration-response curve) was 4.2 µM. In the data set with MDA-MB-415, the EC50 was found to be 28.5 µM, the GI50 was determined as 27.4 µM and the IC50 stood at 28.5 µM. In addition, at CYP1A (setting [5]), the inhibition at 10 µM lay in the range of 63 to 92%. Further, on CYP1A (setting [6]), the inhibition at 1 µM was 14% and the inhibition at 10 µM came out at 85%. Besides, the IC50 in data set [4] is < 10 µM.

`Nc1ncnc2c1ncn2[C@@H]1O[C@H](CSCC[C@H](N)C(=O)O)[C@@H](O)[C@H]1O` [SAH]: the IC50 on MLL4(h) complex (read-out: Reference IC50) is 0.55 µM; at PRDM9 (h) (read-out: Reference IC50), 370 µM.
